Reference: patent publication EP3381906A1, “COMPOUNDS FOR USE AS HEPARANASE INHIBITORS” (Leadiant Biosciences SA, priority 2017, dated 2018)
Like-named read-outs stand apart in the source and are kept apart here.

How the values were obtained:
heparanase = target: T1, heparanase (Homo sapiens, UniProt Q9Y251); test: AGA*IA assay: heparanase-catalyzed fondaparinux cleavage, colorimetric (WST-1); assay type: biochemical
T1 construct: 100 µM fondaparinux, 2.5 nM heparanase and serial dilutions of test compounds
T1 sequence (Q9Y251 158-543 limits assumed): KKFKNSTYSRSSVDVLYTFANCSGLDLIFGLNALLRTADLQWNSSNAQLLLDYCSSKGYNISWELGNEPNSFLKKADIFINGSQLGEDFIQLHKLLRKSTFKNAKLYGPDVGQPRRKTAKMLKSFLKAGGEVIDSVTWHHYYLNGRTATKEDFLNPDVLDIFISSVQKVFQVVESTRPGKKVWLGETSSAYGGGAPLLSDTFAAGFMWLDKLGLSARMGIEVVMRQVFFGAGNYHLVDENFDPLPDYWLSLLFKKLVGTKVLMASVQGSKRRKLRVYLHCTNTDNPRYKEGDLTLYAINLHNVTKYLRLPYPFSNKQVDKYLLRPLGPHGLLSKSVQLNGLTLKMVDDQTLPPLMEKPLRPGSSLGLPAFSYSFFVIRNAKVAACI
T1 sequence (Q9Y251 36-109 limits assumed): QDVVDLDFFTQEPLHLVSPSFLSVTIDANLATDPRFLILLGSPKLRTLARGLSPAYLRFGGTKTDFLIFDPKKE
Description: All compounds were tested in a simple, accurate and robust microplate assay based on the cleavage of the synthetic heparin fragment, the pentasaccharide Fondaparinux (AGA*IA). This assay was originally developed by Hammond and coworkers [Hammond E, Li CP, Ferro V. Development of a colorimetric assay for heparanase activity suitable for kinetic analysis and inhibitor screening. […] Fondaparinux is cleaved by heparanase to generate a reducing disaccharide, which can be quantitatively measured via a colorimetric or a fluorescence assay, the last by the fluorescent sensor polymer-H [Schiemann S, Lühn S, Alban S. Development of both colorimetric and fluorescence heparinase activity assays using fondaparinux as substrate.
The assay measures the appearance of the disaccharide product of heparanase-catalyzed fondaparinux cleavage colorimetrically using the tetrazolium salt WST-1. Assay was essentially performed as described with minor modifications. Briefly, NUNC ELISA 96-well plates were pre-treated with a solution of 4% BSA (bovin serum albumin) in phosphate-buffered saline containing 0.05% Tween 20 (PBST), for 2 h at 37°C, then washed three times with PBST, dried by tapping on paper towel and stored at -20°C. Before use, once again, the plates were washed with PBST.
Then, the absorbance at 560 nm was measured through a microplate reader (Victor 3, Perkin Elmer).
Finally, the measurements were corrected by subtracting both the reagent background and the inner absorbance value of test compound.

[1] = test system: HT1080 (human fibrosarcoma); test: SRB Cell Cytotoxicity Assay; assay type: cell-based; details: HT-1080, HT1080, treated for 72h, read-out: Concentration of test compounds at which the cell growth is inhibited by 50 % HT1080
Source text: (§1) SRB Cell Cytotoxicity Assay is an assay based upon the quantitative staining of cellular proteins by sulforhodamine B (SRB). This assay can be used for high-throughput drug screening (Vichai & Kirkitara, Nature Protocol. 2006, 1, 112). Sulforhodamine B is an anionic aminoxanthene dye that forms an electrostatic complex with the basic amino acid residues of proteins under moderately acid conditions, which provides a sensitive linear response.
(§2) To assess a putative antiproliferative activity of the selected compounds, HT1080 (human fibrosarcoma), U87MG (human glioblastoma astrocytoma) and U2OS (human osteosarcoma) cell lines were treated for 72h, in triplicate, with increasing concentrations of heparanase inhibitors. Inhibition of cell proliferation was then measured by the classical colorimetric SRB Cell Cytotoxicity assay. Absorbance was measured by spectrophotometer at a wavelength of 510 nm and cell proliferation was determined as percent with respect to control cells (cells treated with the vehicle alone). EC50 values were then determined by GraphPad Prism.

[2] = test system: U2OS (human osteosarcoma); test: SRB Cell Cytotoxicity Assay; assay type: cell-based; details: treated for 72h, read-out: Concentration of test compounds at which the cell growth is inhibited by 50 % U2OS
Source text: as §1, §2

[3] = test system: U87MG (human glioblastoma astrocytoma); test: SRB Cell Cytotoxicity Assay; assay type: cell-based; details: U-87 MG, treated for 72h, read-out: Concentration of test compounds at which the cell growth is inhibited by 50 % U87MG
Source text: as §1, §2

[4] = 2.5 nM heparanase, 100 µM fondaparinux, pH 5.0, 3 h at 37°C, class symbols, read-out: AGAIA assay (IC50)

| Compound | IC50 (heparanase; [4]) | other results |
| --- | --- | --- |
| O=C(O)c1ccc(N2C(=O)c3ccc(Oc4cccc(Oc5ccc6c(c5)C(=O)N(c5ccc(C(=O)O)cc5)C6=O)c4)cc3C2=O)cc1 [SST0860, Benzoic acid, 4,4'-[1,3-phenylenebis[oxy(1,3-dihydro-1,3-dioxo-2H-isoindole-5,2-diyl)]]bis-] | 1 to 10 µM | – |
| O=C(Nc1nc(-c2ccc3ccccc3c2)cs1)c1ccc(Oc2ccc(C(=O)Nc3nc(-c4ccc5ccccc5c4)cs3)cc2)cc1 [SST0803] | 1 to 10 µM | – |
| O=C(Nc1cccc(-c2nc3ccccc3s2)c1)c1ccc(Oc2ccc(C(=O)Nc3cccc(-c4nc5ccccc5s4)c3)cc2)cc1 [SST0802, N-[3-(1,3-benzothiazol-2-yl)phenyl]-4-[4-[[3-(1,3-benzothiazol-2-yl)phenyl]carbamoyl]phenoxy]benzamide] | 1 to 10 µM | – |
| O=C(O)/C=C/C(=O)Nc1ccc(Sc2ccc(Oc3ccc(Sc4ccc(NC(=O)/C=C/C(=O)O)cc4)cc3)cc2)cc1 [SST0806, (E)-4-[4-[4-[4-[4-[[(E)-3-carboxyprop-2-enoyl]amino]phenyl]sulfanylphenoxy]phenyl]sulfanylanilino]-4-oxobut-2-enoic acid] | 0.5 to 0.99 µM | EC50 [1]: > 2.5 µM; EC50 [2]: > 2.5 µM; EC50 [3]: > 2.5 µM |
| O=C(O)c1ccc(NC(=O)c2ccc(Oc3ccc(C(=O)Nc4ccc(C(=O)O)cc4)cc3)cc2)cc1 [SST0809, 4,4'-[oxybis(benzene-4,1-diylcarbonylimino)]dibenzoic acid] | 1 to 10 µM | – |
| O=C(Nc1ccc(NC(=O)c2ccc(N=Nc3ccc(O)cc3O)cc2)c(S(=O)(=O)O)c1)Nc1ccc(NC(=O)c2ccc(N=Nc3ccc(O)cc3O)cc2)c(S(=O)(=O)O)c1 [SST0610] | 1 to 10 µM | – |
| CC(C)(c1ccc(Oc2ccc3c(c2)C(=O)N(c2ccc(C(=O)O)cc2)C3=O)cc1)c1ccc(Oc2ccc3c(c2)C(=O)N(c2ccc(C(=O)O)cc2)C3=O)cc1 [SST0852, 4-[5-[4-[2-[4-[2-(4-carboxyphenyl)-1,3-dioxoisoindol-5-yl]oxyphenyl]propan-2-yl]phenoxy]-1,3-dioxoisoindol-2-yl]benzoic acid] | 1 to 10 µM | – |
| O=C(Nc1ccc(Oc2ccc(NC(=O)c3ccc4c(c3)C(=O)N(c3nccs3)C4=O)cc2)cc1)c1ccc2c(c1)C(=O)N(c1nccs1)C2=O [SST0816] | 1 to 10 µM | – |
| O=C(O)c1ccc2c(c1)C(=O)N(c1cccc(Oc3cccc(Oc4cccc(N5C(=O)c6ccc(C(=O)O)cc6C5=O)c4)c3)c1)C2=O [SST0857] | 1 to 10 µM | – |
| O=C(O)c1ccc(Oc2ccc3c(c2)C(=O)N(c2ccc(Oc4ccc(N5C(=O)c6ccc(Oc7ccc(C(=O)O)cc7)cc6C5=O)cc4)cc2)C3=O)cc1 [SST0807, 4-[2-[4-[4-[5-(4-carboxyphenoxy)-1,3-dioxoisoindol-2-yl]phenoxy]phenyl]-1,3-dioxoisoindol-5-yl]oxybenzoic acid] | 1 to 10 µM | – |
| O=C(O)c1ccc2c(c1)C(=O)N(c1ccc(Oc3ccc(Oc4ccc(N5C(=O)c6ccc(C(=O)O)cc6C5=O)cc4)cc3)cc1)C2=O [SST0813] | 1 to 10 µM | – |
| O=C(Nc1ccc(O)cc1C(=O)O)c1ccc(Oc2ccc(C(=O)Nc3ccc(O)cc3C(=O)O)cc2)cc1 [SST0810] | 1 to 10 µM | – |
| O=C(Nc1ccccc1C(=O)O)c1ccc2c(c1)C(=O)N(c1ccc(S(=O)(=O)c3ccc(N4C(=O)c5ccc(C(=O)Nc6ccccc6C(=O)O)cc5C4=O)cc3)cc1)C2=O [SST0602, 2-[[2-[4-[4-[5-[(2-carboxyphenyl)carbamoyl]-1,3-dioxoisoindol-2-yl]phenyl]sulfonylphenyl]-1,3-dioxoisoindole-5-carbonyl]amino]benzoic acid] | 1 to 10 µM | – |
| O=C(Nc1ccc2c(O)c(N=Nc3ccc(N=Nc4ccc(S(=O)(=O)O)cc4)cc3S(=O)(=O)O)c(S(=O)(=O)O)cc2c1)Nc1ccc2c(O)c(N=Nc3ccc(N=Nc4ccc(S(=O)(=O)O)cc4)cc3S(=O)(=O)O)c(S(=O)(=O)O)cc2c1 [SST0595] | – | IC50 (heparanase; read-out: AGAIA assay (IC50), 2.5 nM heparanase, 100 µM fondaparinux, pH 5.0, 3 h at 37°C, class symbols): 0.5 to 0.99 µM; EC50 [1]: > 10 µM; EC50 [2]: > 10 µM; EC50 [3]: > 10 µM |
| CC(C)(c1ccc(Oc2ccc3c(c2)C(=O)N(c2cccc(C(=O)O)c2)C3=O)cc1)c1ccc(Oc2ccc3c(c2)C(=O)N(c2cccc(C(=O)O)c2)C3=O)cc1 [SST0851, 3-[5-[4-[2-[4-[2-(3-carboxyphenyl)-1,3-dioxoisoindol-5-yl]oxyphenyl]propan-2-yl]phenoxy]-1,3-dioxoisoindol-2-yl]benzoic acid] | 0.5 to 0.99 µM | EC50 [1]: > 2.5 µM; EC50 [2]: > 2.5 µM; EC50 [3]: > 2.5 µM |
| O=C(Nc1cccc(Oc2ccc(S(=O)(=O)c3ccc(Oc4cccc(NC(=O)c5ccc(F)cc5)c4)cc3)cc2)c1)c1ccc(F)cc1 [SST0812] | 1 to 10 µM | – |
| O=C(Nc1ccc(-c2nc3ccccc3o2)cc1)c1ccc(Oc2ccc(C(=O)Nc3ccc(-c4nc5ccccc5o4)cc3)cc2)cc1 [SST0805] | – | IC50 (heparanase): 1 to 10 µM |
| O=C(O)c1cc(NC(=O)c2ccc(Oc3ccc(C(=O)Nc4cc(C(=O)O)cc(C(=O)O)c4)cc3)cc2)cc(C(=O)O)c1 [SST0808, 5-[[4-[4-[(3,5-dicarboxyphenyl)carbamoyl]phenoxy]benzoyl]amino]benzene-1,3-dicarboxylic acid] | 1 to 10 µM | – |
| O=C(Nc1cccc(C(=O)c2ccccc2)c1)c1ccc(Oc2ccc(C(=O)Nc3cccc(C(=O)c4ccccc4)c3)cc2)cc1 [SST0801] | 1 to 10 µM | – |
| O=C(O)c1ccccc1N1C(=O)c2ccc(Oc3ccc(Oc4ccc5c(c4)C(=O)N(c4ccccc4C(=O)O)C5=O)cc3)cc2C1=O [SST0855, Benzoic acid, 2,2'-[1,4-phenylenebis[oxy(1,3-dihydro-1,3-dioxo-2H-isoindole-5,2-diyl)]]bis-] | 1 to 10 µM | – |
| O=C(Nc1ccc(Br)cc1C(=O)O)c1ccc(Oc2ccc(C(=O)Nc3ccc(Br)cc3C(=O)O)cc2)cc1 [SST0604, 5-bromo-2-[[4-[4-[(4-bromo-2-carboxyphenyl)carbamoyl]phenoxy]benzoyl]amino]benzoic acid] | 1 to 10 µM | – |
| O=C(Nc1csc(-c2ccc(Oc3ccc(-c4nc(NC(=O)c5ccc(C(=O)c6ccccc6)cc5)cs4)cc3)cc2)n1)c1ccc(C(=O)c2ccccc2)cc1 [SST0804] | 1 to 10 µM | – |
| O=C(Nc1ccc(O)cc1C(=O)O)c1ccc(S(=O)(=O)c2ccc(C(=O)Nc3ccc(O)cc3C(=O)O)cc2)cc1 [SST0817] | – | IC50 (heparanase): 0.5 to 0.99 µM |
| O=C(O)c1ccc(Oc2cccc(N3C(=O)c4ccc(Oc5ccc6c(c5)C(=O)N(c5cccc(Oc7ccc(C(=O)O)c(C(=O)O)c7)c5)C6=O)cc4C3=O)c2)cc1C(=O)O [SST0853, 4-[3-[5-[2-[3-(3,4-dicarboxyphenoxy)phenyl]-1,3-dioxoisoindol-5-yl]oxy-1,3-dioxoisoindol-2-yl]phenoxy]phthalic acid] | 0.5 to 0.99 µM | EC50 [1]: > 2.5 µM; EC50 [2]: > 2.5 µM; EC50 [3]: > 2.5 µM |
| Nc1ccc2cc(S(=O)(=O)O)cc(O)c2c1N=Nc1ccc(NC(=O)Nc2ccc(N=Nc3c(N)ccc4cc(S(=O)(=O)O)cc(O)c34)c(S(=O)(=O)O)c2)cc1S(=O)(=O)O [SST0753] | 1 to 10 µM | – |
| O=C(Nc1ccccc1C(=O)O)c1ccc2c(c1)C(=O)N(c1ccc(Oc3ccc(N4C(=O)c5ccc(C(=O)Nc6ccccc6C(=O)O)cc5C4=O)cc3)cc1)C2=O [SST0600, Benzoic acid, 2,2'-[oxybis[4,1-phenylene(1,3-dihydro-1,3-dioxo-2H-isoindole-2,5-diyl)carbonylimino]]bis-] | 1 to 10 µM | – |
| O=C(Nc1nc(-c2ccc(F)cc2)cs1)c1ccc(Oc2ccc(C(=O)Nc3nc(-c4ccc(F)cc4)cs3)cc2)cc1 [SST0815] | 1 to 10 µM | – |
